ChEMBL document CHEMBL1201862, “PubChem BioAssay data set” (2004)
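The compound was tested at five concentrations on cells cultured in 96-well plates, with a 48-hour exposure period. GI50 = concentration required for 50% inhibition of growth.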 Activity calls are given as the source filed them. No stated cut-off is given here; in the data, active = GI50 up to about 1.1 µM and inactive = higher.

How the values were obtained:
Test in all cases: NCI anticancer screen, dose series, 48 h
[1] = tested on: 786-0
[2] = tested on: A498
[3] = tested on: A549
[4] = tested on: ACHN
[5] = tested on: BT-549
[6] = tested on: CAKI-1
[7] = tested on: CCRF-CEM
[8] = tested on: COLO 205
[9] = tested on: DU-145
[10] = tested on: EKVX
[11] = tested on: HCC 2998
[12] = tested on: HCT-116
[13] = tested on: HCT-15
[14] = tested on: HL-60
[15] = tested on: HOP-62
[16] = tested on: HOP-92
[17] = tested on: HT-29
[18] = tested on: Hs-578T
[19] = tested on: IGROV-1
[20] = tested on: K562
[21] = tested on: KM12
[22] = tested on: LOX IMVI
[23] = tested on: M14
[24] = tested on: MCF7
[25] = tested on: MDA-MB-231
[26] = tested on: MDA-MB-435
[27] = tested on: MDA-N
[28] = tested on: MOLT-4
[29] = tested on: Malme-3M
[30] = tested on: NCI-H226
[31] = tested on: NCI-H23
[32] = tested on: NCI-H460
[33] = tested on: NCI-H522
[34] = tested on: NCI/ADR-RES
[35] = tested on: OVCAR-3
[36] = tested on: OVCAR-4
[37] = tested on: OVCAR-5
[38] = tested on: OVCAR-8
[39] = tested on: PC-3
[40] = tested on: RPMI-8226
[41] = tested on: RXF 393
[42] = tested on: SF-268
[43] = tested on: SF-295
[44] = tested on: SF-539
[45] = tested on: SK-MEL-28
[46] = tested on: SK-MEL-2
[47] = tested on: SK-MEL-5
[48] = tested on: SK-OV-3
[49] = tested on: SN12C
[50] = tested on: SNB-19
[51] = tested on: SNB-75
[52] = tested on: SR
[53] = tested on: SW-620
[54] = tested on: T47D
[55] = tested on: TK-10
[56] = tested on: U-251
[57] = tested on: UACC-257
[58] = tested on: UACC-62
[59] = tested on: UO-31

For `C/C(=N\NC(=S)N1CCN(c2ccccn2)CC1)c1cccc2cccnc12`, the GI50 [1] was 4.29 µM (inactive), the GI50 [2] was 12 µM (inactive) and the GI50 [3] was 5.25 µM (inactive). For the same compound, the GI50 [4] was 4.01 µM (inactive), the GI50 [5] was 14.3 µM (inactive) and the GI50 [6] was 6.32 µM (inactive). For the same compound, the GI50 [7] was 2.18 µM (inactive), the GI50 [8] was 3.02 µM (inactive) and the GI50 [9] was 3.56 µM (inactive). For the same compound, the GI50 [10] was 3.59 µM (inactive), the GI50 [11] was 5.47 µM (inactive) and the GI50 [12] was 2.39 µM (inactive). The GI50 [13] was 3.68 µM, the GI50 [14] was 0.828 µM (active) and the GI50 [15] was 6.05 µM (inactive). The GI50 [16] was 3.98 µM (inactive), the GI50 [17] was 3.61 µM (inactive) and the GI50 [18] was 9.08 µM (inactive). For the same compound, the GI50 [19] was 5.79 µM (inactive), the GI50 [20] was 2.46 µM (inactive) and the GI50 [21] was 3.9 µM (inactive). For the same compound, the GI50 [22] was 3.59 µM (inactive), the GI50 [23] was 5.15 µM (inactive) and the GI50 [24] was 3.6 µM (inactive). The GI50 [25] was 4.42 µM (inactive), the GI50 [26] was 6.31 µM (inactive) and the GI50 [27] was 4.71 µM (inactive). For the same compound, the GI50 [28] was 3.21 µM (inactive), the GI50 [29] was 4.76 µM (inactive) and the GI50 [30] was 5.77 µM (inactive). The GI50 [31] was 11.5 µM (inactive), the GI50 [32] was 3.51 µM (inactive) and the GI50 [33] was 2.28 µM (inactive). The GI50 [34] was 3.35 µM (inactive), the GI50 [35] was 3.44 µM (inactive) and the GI50 [36] was 4.03 µM (inactive). For the same compound, the GI50 [37] was 4.9 µM (inactive), the GI50 [38] was 3.43 µM (inactive) and the GI50 [39] was 3.67 µM (inactive). For the same compound, the GI50 [40] was 2.29 µM (inactive), the GI50 [41] was 3.33 µM (inactive) and the GI50 [42] was 5.08 µM (inactive). For the same compound, the GI50 [43] was 3.37 µM (inactive), the GI50 [44] was 4.11 µM (inactive) and the GI50 [45] was 6.58 µM (inactive). For the same compound, the GI50 [46] was 2.51 µM (inactive), the GI50 [47] was 2.46 µM (inactive) and the GI50 [48] was 11.4 µM (inactive). For the same compound, the GI50 [49] was 4.07 µM (inactive), the GI50 [50] was 5.78 µM (inactive) and the GI50 [51] was 13.1 µM (inactive). The GI50 [52] was 0.859 µM (active), the GI50 [53] was 4.33 µM (inactive) and the GI50 [54] was 3.68 µM (inactive). For the same compound, the GI50 [55] was 6.31 µM (inactive), the GI50 [56] was 4.12 µM (inactive) and the GI50 [57] was 2.84 µM (inactive). For the same compound, the GI50 [58] was 3.53 µM (inactive) and the GI50 [59] was 4.36 µM (inactive).

For `COc1ccc(/C=C/C(=O)c2ccc(OC(=O)/C=C/c3ccccc3)cc2)cc1`, the GI50 [1] was 17 µM (inactive), the GI50 [2] was 25.1 µM (inactive) and the GI50 [3] was 29.5 µM (inactive). The GI50 [4] was 34.6 µM (inactive), the GI50 [5] was 14.9 µM (inactive) and the GI50 [6] was 23.3 µM (inactive). The GI50 [7] was 5.21 µM (inactive), the GI50 [8] was 32.2 µM (inactive) and the GI50 [9] was 11.9 µM (inactive). The GI50 [10] was 29 µM (inactive), the GI50 [11] was 16.2 µM (inactive) and the GI50 [12] was 18.7 µM (inactive). For the same compound, the GI50 [13] was 15.7 µM, the GI50 [14] was 4.08 µM (inactive) and the GI50 [15] was 61.1 µM (inactive). The GI50 [16] was 44.5 µM (inactive), the GI50 [17] was 18.5 µM (inactive) and the GI50 [18] was 36 µM (inactive). For the same compound, the GI50 [19] was 18.9 µM (inactive), the GI50 [20] was 5.93 µM (inactive) and the GI50 [21] was 8.97 µM (inactive). The GI50 [22] was 16.7 µM (inactive), the GI50 [23] was 59.8 µM (inactive) and the GI50 [24] was 23.6 µM (inactive). The GI50 [25] was 27.5 µM (inactive), the GI50 [26] was 7.73 µM (inactive) and the GI50 [27] was 14.5 µM (inactive). The GI50 [28] was 16.6 µM (inactive), the GI50 [29] was 41 µM (inactive) and the GI50 [30] was 59.3 µM (inactive). The GI50 [31] was 21 µM (inactive), the GI50 [32] was 19.4 µM (inactive) and the GI50 [33] was 19.3 µM (inactive). The GI50 [34] was 31.2 µM (inactive), the GI50 [35] was 32 µM (inactive) and the GI50 [36] was 24.4 µM (inactive). The GI50 [37] was > 85.7 µM (inactive), the GI50 [38] was 26.7 µM (inactive) and the GI50 [39] was 25.7 µM (inactive). The GI50 [40] was 3.7 µM (inactive), the GI50 [41] was 41.7 µM (inactive) and the GI50 [42] was 25 µM (inactive). The GI50 [43] was 25.1 µM (inactive), the GI50 [44] was 11.5 µM (inactive) and the GI50 [45] was 43.6 µM (inactive). For the same compound, the GI50 [46] was 45.1 µM (inactive), the GI50 [47] was 26 µM (inactive) and the GI50 [48] was 53 µM (inactive). For the same compound, the GI50 [49] was 26.6 µM (inactive), the GI50 [50] was 21.8 µM (inactive) and the GI50 [51] was 28.9 µM (inactive). The GI50 [52] was 2.28 µM (inactive), the GI50 [53] was 28.1 µM (inactive) and the GI50 [54] was 23.9 µM (inactive). The GI50 [55] was 44.1 µM (inactive), the GI50 [56] was 19 µM (inactive) and the GI50 [57] was 37.7 µM (inactive). For the same compound, the GI50 [58] was 22.7 µM (inactive) and the GI50 [59] was 22.7 µM (inactive).
